Patent publication US7223865B2, “Chromogenic compounds, and use thereof as enzyme substrates” (Biomerieux, priority 2003, dated 2007)

What was measured:
Assay in all cases: glycine-aminopeptidase activity on gelled medium, Example 10
Format in all cases: cell-based
[1] = system: Salmonella poona (NCTC 4840); parameters: key to growth: ++ means good growth; + means moderate growth; +/− means poor growth; NG means no growth
Protocol: (§1) A gelled medium comprising this substrate is prepared as follows: 30 mg of the substrate are dissolved (heating) in 10 ml of sterile distilled water. Ten ml of this solution are then added to 90 ml of Columbia agar, kept molten at 50° C.
(§2) Various strains of microorganisms derived from the NCTC collection (National Collection of Type Cultures, Colindale, UK) were seeded onto the media thus obtained according to the multipoint inoculation described in example 8 above.
(§3) The colonies formed were examined visually after incubation for 24 h and 48 h. The color and the growth of these colonies were noted.

[2] = system: Shigella sonnei (NCTC 9774); parameters: key to growth: ++ means good growth; + means moderate growth; +/− means poor growth; NG means no growth
Protocol: as §1, §2, §3

[3] = system: Pseudomonas aeruginosa (NCTC 10662); parameters: key to growth: ++ means good growth; + means moderate growth; +/− means poor growth; NG means no growth
Protocol: as §1, §2, §3

[4] = system: Escherichia coli O157 (NCTC 12079); parameters: key to growth: ++ means good growth; + means moderate growth; +/− means poor growth; NG means no growth
Protocol: as §1, §2, §3

[5] = system: Enterococcus faecalis (NCTC 12697); parameters: key to growth: ++ means good growth; + means moderate growth; +/− means poor growth; NG means no growth
Protocol: as §1, §2, §3

[6] = system: Enterobacter cloacae (NCTC 11936); parameters: key to growth: ++ means good growth; + means moderate growth; +/− means poor growth; NG means no growth
Protocol: as §1, §2, §3

[7] = system: Burkholderia cepacia (NCTC 10743); parameters: key to growth: ++ means good growth; + means moderate growth; +/− means poor growth; NG means no growth
Protocol: as §1, §2, §3

[8] = system: Klebsiella pneumonia (NCTC 10896); parameters: key to growth: ++ means good growth; + means moderate growth; +/− means poor growth; NG means no growth
Protocol: as §1, §2, §3

[9] = system: Staphylococcus aureus (NCTC 11939); parameters: key to growth: ++ means good growth; + means moderate growth; +/− means poor growth; NG means no growth
Protocol: as §1, §2, §3

[10] = system: Enterococcus faecium (NCTC 7171); parameters: key to growth: ++ means good growth; + means moderate growth; +/− means poor growth; NG means no growth
Protocol: as §1, §2, §3

[11] = system: Listeria monocytogenes (NCTC 11994); parameters: key to growth: ++ means good growth; + means moderate growth; +/− means poor growth; NG means no growth
Protocol: as §1, §2, §3

[12] = system: Salmonella typhimurium (NCTC 74); parameters: key to growth: ++ means good growth; + means moderate growth; +/− means poor growth; NG means no growth
Protocol: as §1, §2, §3

[13] = system: Serratia marcescens (NCTC 10211); parameters: key to growth: ++ means good growth; + means moderate growth; +/− means poor growth; NG means no growth
Protocol: as §1, §2, §3

[14] = system: Enterococcus faecalis (NCTC 755); parameters: key: ++ means good growth; + means moderate growth; +/− means poor growth; NG means no growth
Protocol: as §1, §2, §3

[15] = system: Staphylococcus aureus (NCTC 6571); parameters: key: ++ means good growth; + means moderate growth; +/− means poor growth; NG means no growth
Protocol: as §1, §2, §3

[16] = system: Escherichia coli (NCTC 14018); parameters: key: ++ means good growth; + means moderate growth; +/− means poor growth; NG means no growth
Protocol: as §1, §2, §3

Structure (SMILES): C[n+]1c2ccccc2c(-c2ccc(NC(=O)CN)cc2)c2ccccc21.[Cl-] [G-4-AP-10-MA, glycyl-9-(4-aminophenyl)-10-methylacridine]
- color of colonies ([1]; 24 h): Orange
- growth ([1]; 24 h): ++
- color of colonies ([1]; 48 h): Orange
- growth ([1]; 48 h): ++
- color of colonies ([2]; 24 h): Orange
- growth ([2]; 24 h): ++
- color of colonies ([2]; 48 h): Orange
- growth ([2]; 48 h): ++
- color of colonies ([3]; 24 h): Pale orange
- growth ([3]; 24 h): (++)
- color of colonies ([3]; 48 h): Orange
- growth ([3]; 48 h): ++
- color of colonies ([4]; 24 h): Orange
- growth ([4]; 24 h): ++
- color of colonies ([4]; 48 h): Orange
- growth ([4]; 48 h): ++
- color of colonies ([5]; 24 h): Colorless
- growth ([5]; 24 h): +
- color of colonies ([5]; 48 h): Colorless
- growth ([5]; 48 h): +
- color of colonies ([6]; 24 h): Orange
- growth ([6]; 24 h): ++
- color of colonies ([6]; 48 h): Orange
- growth ([6]; 48 h): ++
- color of colonies ([7]; 24 h): Orange
- growth ([7]; 24 h): ++
- color of colonies ([7]; 48 h): Orange
- growth ([7]; 48 h): ++
- color of colonies ([8]; 24 h): Orange
- growth ([8]; 24 h): ++
- color of colonies ([8]; 48 h): Orange
- growth ([8]; 48 h): ++
- color of colonies ([9]; 24 h): Colorless
- growth ([9]; 24 h): +
- color of colonies ([9]; 48 h): Colorless
- growth ([9]; 48 h): +
- color of colonies ([10]; 24 h): Colorless
- growth ([10]; 24 h): +
- color of colonies ([10]; 48 h): Colorless
- growth ([10]; 48 h): +
- color of colonies ([11]; 24 h): Colorless
- growth ([11]; 24 h): +
- color of colonies ([11]; 48 h): Colorless
- growth ([11]; 48 h): +
- color of colonies ([12]; 24 h): Pale orange
- growth ([12]; 24 h): (++)
- color of colonies ([12]; 48 h): Pale orange
- growth ([12]; 48 h): ++
- color of colonies ([13]; 24 h): Orange
- growth ([13]; 24 h): ++
- color of colonies ([13]; 48 h): Orange
- growth ([13]; 48 h): ++
- growth ([14]; 24 h): NG
- growth ([14]; 48 h): NG
- growth ([15]; 24 h): NG
- growth ([15]; 48 h): NG
- growth ([16]; 24 h): NG
- growth ([16]; 48 h): NG
